Experimental data as given in patent US9284303B2, “Benzimidazole cannabinoid agonists bearing a substituted heterocyclic group” (priority 2006, dated 2016).
Like-named read-outs stand apart in the source and are kept apart here.

Experiments:
[1] = target: T1, human CB2 (hCB2) receptor (Homo sapiens, UniProt P34972); assay: Inhibition of forskolin-activated cAMP production upon activation of hCB2 (HTRF), CHO-K1 cells; format: cell-based; conditions: for ratio CB2 agonism over CB1 agonism: Table C-1, selectivity hCB2 over hCB1; for EC50: forskolin-activated cAMP, pEC50=-log(EC50)
T1 construct: expressed in transfected cells; host or cells: CHO-K1
T1 sequence (P34972 whole entry): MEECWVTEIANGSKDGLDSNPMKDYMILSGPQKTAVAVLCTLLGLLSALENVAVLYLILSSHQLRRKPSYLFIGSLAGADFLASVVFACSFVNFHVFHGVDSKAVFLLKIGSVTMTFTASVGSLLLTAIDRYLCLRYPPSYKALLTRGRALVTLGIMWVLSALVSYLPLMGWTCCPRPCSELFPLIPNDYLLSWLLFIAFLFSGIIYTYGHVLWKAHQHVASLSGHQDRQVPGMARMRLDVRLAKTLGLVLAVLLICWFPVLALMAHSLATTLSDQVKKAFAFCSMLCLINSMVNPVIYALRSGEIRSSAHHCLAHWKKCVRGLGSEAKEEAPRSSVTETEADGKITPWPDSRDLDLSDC

[2] = target: T2, human CB1 (hCB1) receptor (Homo sapiens, UniProt P21554); assay: Inhibition of forskolin-activated cAMP production upon activation of hCB1 (HTRF), CHO-K1 cells; format: cell-based; conditions: forskolin-activated cAMP, pEC50=-log(EC50); for EC50: CB1 pEC50, hCB1-CHO-K1 cells
T2 construct: expressed in transfected cells; host or cells: CHO-K1
T2 sequence (P21554 whole entry): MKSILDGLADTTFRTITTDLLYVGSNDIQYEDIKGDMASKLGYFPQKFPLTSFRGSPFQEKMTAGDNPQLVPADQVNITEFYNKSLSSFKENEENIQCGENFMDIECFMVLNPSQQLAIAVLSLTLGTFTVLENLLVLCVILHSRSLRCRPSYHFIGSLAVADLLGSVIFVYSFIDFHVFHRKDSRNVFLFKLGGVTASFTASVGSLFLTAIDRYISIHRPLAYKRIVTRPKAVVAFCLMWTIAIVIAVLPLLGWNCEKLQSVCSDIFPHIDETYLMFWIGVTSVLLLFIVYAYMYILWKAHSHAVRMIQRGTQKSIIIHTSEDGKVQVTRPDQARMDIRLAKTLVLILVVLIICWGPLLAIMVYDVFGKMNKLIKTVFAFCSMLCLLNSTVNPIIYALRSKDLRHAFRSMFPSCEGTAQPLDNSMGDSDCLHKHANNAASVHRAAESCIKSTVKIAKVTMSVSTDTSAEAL
How it was run: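 CHO-K1 cells stably expressing hCB1 (20,000/well) were in HBSS stimulation buffer (1 mM IBMX, 10 mM MgCl2, 0.1% BSA, pH 7.4), with 6 μM forskolin in the compound buffer, 30 min at room temperature in the dark. cAMP was read as HTRF 665/620 ratio, normalized to DMSO and CP55490. Outputs were pEC50 and inhibition at 10 μM relative to CP55490.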

[3] = hCB2-CHO-K1 cells, read-out: CB2 pEC50 (converted)

## CC(C)(C)c1nc2cc(S(=O)(=O)c3ncccc3C#N)ccc2n1CC1CCOCC1 [Co. No. 104]
[1]
  ratio CB2 agonism over CB1 agonism: 117
[1]; [3]
  EC50: 0.741 nM
[2]
  EC50: 87.1 nM
other
  melting point: 100 to 105 °C

## CC(C)(C)c1nc2cc(S(=O)(=O)c3cc(C(F)(F)F)ccn3)ccc2n1CC1CCOCC1 [Co. No. 105]
[1]
  ratio CB2 agonism over CB1 agonism: 295
[1]; [3]
  EC50: 1.58 nM
[2]
  EC50: 479 nM
other
  melting point: 139.5 to 141 °C

## CC(C)(C)c1nc2cc(S(=O)(=O)c3coc(C(F)(F)F)c3)ccc2n1CC1CCOCC1 [Co. No. 106]
[1]
  ratio CB2 agonism over CB1 agonism: 432
[1]; [3]
  EC50: 0.724 nM
[2]
  EC50: 316 nM
other
  melting point: 168 to 169.5 °C

## Cc1nccc(S(=O)(=O)c2ccc3c(c2)nc(C(C)(C)C)n3CC2CCOCC2)n1 [Co. No. 107]
[1]
  ratio CB2 agonism over CB1 agonism: 646
[1]; [3]
  EC50: 2.4 nM
[2]
  EC50: 1550 nM
other
  melting point: 179.7 °C

## CC(C)(C)c1nc2cc(S(=O)(=O)c3ccnc(F)c3)ccc2n1CC1CCN(C=O)CC1 [Co. No. 112]
[1]
  ratio CB2 agonism over CB1 agonism: >2030
[1]; [3]
  EC50: 4.9 nM
[2]
  EC50: > 10000 nM
other
  melting point: 196.7 °C

## CC(=O)NCc1ccc(S(=O)(=O)c2ccc3c(c2)nc(C(C)(C)C)n3CC2CCOCC2)cn1 [Co. No. 117]
[1]
  ratio CB2 agonism over CB1 agonism: 219
[1]; [3]
  EC50: 4.47 nM
[2]
  EC50: 977 nM
other
  melting point: 199.4 °C

## CC(C)(C)CCn1c(C(C)(C)C)nc2cc(S(=O)(=O)c3ccnc(F)c3)ccc21 [Co. No. 120]
[1]
  ratio CB2 agonism over CB1 agonism: >4365
[1]; [3]
  EC50: 2.29 nM
[2]
  EC50: > 10000 nM
other
  melting point: 131.5 °C

## CC(=O)NCCOc1cc(S(=O)(=O)c2ccc3c(c2)nc(C(C)(C)C)n3CC2CCOCC2)ccn1 [Co. No. 121]
[1]
  ratio CB2 agonism over CB1 agonism: 912
[1]; [3]
  EC50: 3.09 nM
[2]
  EC50: 2820 nM
other
  melting point: 182.3 °C

## CC(=O)NCCNc1cc(S(=O)(=O)c2ccc3c(c2)nc(C(C)(C)C)n3CC2CCOCC2)ccn1 [Co. No. 123]
[1]
  ratio CB2 agonism over CB1 agonism: >2399
[1]; [3]
  EC50: 4.17 nM
[2]
  EC50: > 10000 nM
other
  melting point: 217.2 °C

## COCCCNc1cc(S(=O)(=O)c2ccc3c(c2)nc(C(C)(C)C)n3CC2CCOCC2)ccn1 [Co. No. 126]
[1]
  ratio CB2 agonism over CB1 agonism: 1129
[1]; [3]
  EC50: 0.851 nM
[2]; hCB1-CHO-K1 cells
  CB1 pEC50: 6.02
other
  melting point: 148.3 °C

## CC(C)(C)Cn1c(C(C)(C)C)nc2cc(S(=O)(=O)c3ccnc(F)c3)ccc21 [Co. No. 127]
[1]; CB2 pEC50, hCB2-CHO-K1 cells
  EC50: 1.66 nM
[1]
  ratio CB2 agonism over CB1 agonism: 6026
[2]
  EC50: > 10000 nM
other
  melting point: 135.4 °C

## CC(C)(C)c1nc2cc(S(=O)(=O)c3ccnc(F)c3)ccc2n1CCC1CCOCC1 [Co. No. 128]
[1]
  ratio CB2 agonism over CB1 agonism: >4786
[1]; [3]
  EC50: 2.09 nM
[2]
  EC50: > 10000 nM
other
  melting point: 177.8 °C

## CN(C)CCCOc1cc(S(=O)(=O)c2ccc3c(c2)nc(C(C)(C)C)n3CC2CCOCC2)ccn1 [Co. No. 129]
[1]
  ratio CB2 agonism over CB1 agonism: 617
[1]; [3]
  EC50: 15.5 nM
[2]
  EC50: 9550 nM
other
  melting point: 119.4 °C

## CC(C)(C)c1nc2cc(S(=O)(=O)c3ccnc(F)c3)ccc2n1CC1CCS(=O)(=O)CC1 [Co. No. 133]
[1]
  ratio CB2 agonism over CB1 agonism: >2512
[1]; [3]
  EC50: 3.98 nM
[2]
  EC50: > 10000 nM
other
  melting point: 220.8 °C

## CC(C)(C)c1nc2cc(S(=O)(=O)c3ccnc(F)c3)ccc2n1CC1CCC(=O)CC1 [Co. No. 134]
[1]
  ratio CB2 agonism over CB1 agonism: 2786
[1]; [3]
  EC50: 1.38 nM
[2]
  EC50: 3800 nM
other
  melting point: 164.8 °C

## CC(C)(C)c1nc2cc(S(=O)(=O)c3ccnc(F)c3)ccc2n1CCN1CCCC1 [Co. No. 144]
[1]
  ratio CB2 agonism over CB1 agonism: >3090
[1]; [3]
  EC50: 3.24 nM
[2]
  EC50: > 10000 nM
other
  melting point: 115.5 °C

## CC(C)(C)c1nc2cc(S(=O)(=O)c3ccnc(F)c3)ccc2n1C[C@H]1CC[C@H](O)CC1 [Co. No. 146]
[1]
  ratio CB2 agonism over CB1 agonism: >3981
[1]; [3]
  EC50: 2.51 nM
[2]
  EC50: > 10000 nM
other
  melting point: 163.6 °C
